Experimental data taken from patent US11072617B2, “Bicyclic sulfones and sulfoxides and methods of use thereof” (Genentech, Inc., priority 2017, dated 2021).

biological target: human RIP1 kinase domain (2-375) (Homo sapiens (Human), UniProt Q13546); assay: RIP1 kinase inhibition biochemical assay (Transcreener ADP, fluorescence polarization); conditions: Ki app from tight-binding Morrison equation; 50 nM enzyme, 50 uM ATP, 2 hours incubation
Protocol: RIP1 Kinase Inhibition Assays (Biochemical Assay)
The compounds of the present invention were tested for their capacity to inhibit RIP1K activity as described below.
The ability of the receptor interacting protein kinase (RIPK1) to catalyze the hydrolysis of adenosine-5′-triphosphate (ATP) is monitored using the Transcreener ADP (adenosine-5′-diphosphate) assay (BellBrook Labs). Purified human RIP1 kinase domain (2-375) (50 nM) derived from a baculovirus-infected insect cell expression system is incubated with test compounds for 2 hours in 50 mM Hepes buffer (pH 7.5) containing 30 mM MgCl2, 1 mM dithiothreitol, 50 uM ATP, 0.002% Brij-35, and 0.5% dimethyl sulfoxide (DMSO). Reactions are quenched by the addition of 1× Bell Brooks Stop buffer B (20 mM Hepes (ph7.5), 40 mM ethylenediaminetetraacetic acid and 0.02% Brij-35) containing an additional 12 mM EDTA and 55 ug/mL ADP2 antibody and 4 nM ADP-AlexaFluor® 633 tracer. The tracer bound to the antibody is displaced by the ADP generated during the RIP1K reaction, which causes a decrease in fluorescence polarization that is measured by laser excitation at 633 nm with a FP microplate reader M1000. Fractional activity was plotted against test article concentration. Using Genedata Screener software (Genedata; Basel, Switzerland), the data were fit to the tight-binding apparent inhibition constant (Ki^app) Morrison equation [Williams, J. W. and Morrison, J. F. (1979) The kinetics of reversible tight-binding inhibition. Methods Enzymol 63: 437-67]. The following equation was used to calculate fractional activity and Ki^app:
[formula] where [E]T and [I]T are the total concentrations of active enzyme and test article, respectively.
Exemplary compounds of the present invention are provided in Table 1 along with their physiochemical characterization and in vitro RIP1 kinase inhibitory activity data. “Method” in the first column of each table refers to the synthetic method(s) used to prepare each compound as shown in the Examples above. In certain examples, chiral column retention times (min) are provided for certain stereoisomers. Unless otherwise specified, the stereochemistry shown in each structure represents relative configuration of a single stereoisomer, and absolute configuration (i.e., “R” and/or “S”) is arbitrarily assigned. In some embodiments, where the Method is described to include the separation of stereoisomers, a single stereoisomer of a compound of Table 1 is provided.

Sequence of human RIP1 kinase domain (2-375) (Q13546 2-375): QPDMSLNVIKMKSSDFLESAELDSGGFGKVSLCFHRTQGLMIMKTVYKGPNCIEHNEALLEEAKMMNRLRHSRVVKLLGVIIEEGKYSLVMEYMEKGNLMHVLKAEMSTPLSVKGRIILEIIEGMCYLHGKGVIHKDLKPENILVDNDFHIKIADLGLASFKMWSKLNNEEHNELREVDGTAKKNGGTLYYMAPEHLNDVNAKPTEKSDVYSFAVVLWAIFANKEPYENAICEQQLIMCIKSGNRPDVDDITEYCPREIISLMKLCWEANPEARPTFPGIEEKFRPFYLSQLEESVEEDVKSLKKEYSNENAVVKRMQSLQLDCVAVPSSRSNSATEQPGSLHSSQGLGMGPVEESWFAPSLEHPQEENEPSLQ

Row | SMILES | Ki [nM]
1 | C[C@H]1C[C@@H]1S(=O)(=O)c1nc2n(n1)[C@H](c1ccccc1)C[C@@H]2F (mixture of isomers) [Example 162, (5S,7S)-7-fluoro-5-phenyl-2-[rac-(1S,2S)-2-methylcyclopropyl]sulfonyl-6,7-dihydro-5H-pyrrolo[1,2-b][1,2,4]triazole] | 14
2 | O=S(=O)(c1nc2n(n1)[C@H](c1ccccc1)C[C@@H]2F)[C@H]1C[C@@H]1C(F)(F)F (mixture of isomers) [Example 163, (5S,7S)-7-fluoro-5-phenyl-2-[rac-(1S,2R)-2-(trifluoromethyl)cyclopropyl]sulfonyl-6,7-dihydro-5H-pyrrolo[1,2-b][1,2,4]triazole] | 7
3 | CCS(=O)(=O)c1nc2n(n1)C(c1ccccc1)CC2 (racemic) [Example 2, 2-ethylsulfonyl-5-phenyl-6,7-dihydro-5H-pyrrolo[1,2-b][1,2,4]triazole] | 864
4 | O=S(=O)(c1nc2n(n1)C(c1ccccc1)CC2)C(F)(F)c1ccccc1 (racemic) [Example 4, 2-[difluoro(phenyl)methyl]sulfonyl-5-phenyl-6,7-dihydro-5H-pyrrolo[1,2-b][1,2,4]triazole] | 152
5 | O=S(=O)(c1nc2n(n1)C(c1ccccc1)CC2)C(F)F (racemic) [Example 6] | 101
6 | CS(=O)(=O)c1nc2n(n1)C(c1ccccc1)CC2 (racemic) [Example 9] | 1040
7 | [O-][S+](c1nc2n(n1)[C@H](c1ccccc1)C[C@@H]2F)C(F)F (mixture of isomers) [Example 13, Rac-(5S,7S)-2-((difluoromethyl)sulfinyl)-7-fluoro-5-phenyl-6,7-dihydro-5H-pyrrolo[1,2-b][1,2,4]triazole] | 42
8 | O=S(=O)(c1nc2n(n1)CCC2c1ccccc1)C(F)F (racemic) [Example 220, 2-(Difluoromethylsulfonyl)-7-phenyl-6,7-dihydro-5H-pyrrolo[1,2-b][1,2,4]triazole] | 100
9 | CS(=O)(=O)c1nc2n(n1)[C@H](c1ccccc1F)CC2 (single isomer, unassigned) [Example 7] | 250
10 | CCS(=O)(=O)c1nc2n(n1)[C@H](c1ccccc1F)CC2 (single isomer, unassigned) [Example 8] | 290
11 | O=S(=O)(Cc1ccccc1)c1nc2n(n1)[C@H](c1ccccc1)C[C@@H]2F (single isomer, unassigned) [Example 19] | 15
12 | O=S(=O)(c1nc2n(n1)[C@H](c1ccccc1)C[C@@H]2F)C(F)F (single isomer, unassigned) [Example 23] | 5
13 | CC(C)(C)S(=O)(=O)c1nc2n(n1)[C@H](c1ccccc1)C[C@@H]2F (single isomer, unassigned) [Example 25] | 32
14 | O=S(=O)(c1ccccc1)c1nc2n(n1)[C@H](c1ccccc1)C[C@@H]2F (single isomer, unassigned) [Example 26] | 3200
15 | [O-][S@@+](c1nc2n(n1)[C@H](c1ccccc1F)C[C@@H]2F)C(F)F (single isomer, unassigned) [Example 51] | 140
16 | [O-][S@+](c1nc2n(n1)[C@H](c1ccccc1F)C[C@@H]2F)C(F)F (single isomer, unassigned) [Example 52] | 3
17 | O=S(=O)(c1nc2n(n1)[C@H](c1ccccc1F)C[C@@H]2F)C(F)F (single isomer, unassigned) [Example 53] | 13
18 | O=S(=O)(c1nc2n(n1)[C@H](c1c(F)cccc1F)C[C@@H]2F)C(F)F (single isomer, unassigned) [Example 58] | 34
19 | O=S(=O)(c1nc2n(n1)[C@H](c1c(F)ccc(F)c1F)C[C@@H]2F)C(F)F (single isomer, unassigned) [Example 59] | 7
20 | O=S(=O)(c1nc2n(n1)[C@H](c1cccc(Cl)c1)C[C@@H]2F)C(F)F (single isomer, unassigned) [Example 61] | 39

The next lines start with the values.

Row | Ki [nM] | SMILES
21 | 4 | O=S(=O)(c1nc2n(n1)[C@H](c1ccccc1)C[C@@H]2F)C1CC1(F)F (mixture of isomers) [Example 118, (5S,7S)-2-((2,2-difluorocyclopropyl)sulfonyl)-7-fluoro-5-phenyl-6,7-dihydro-5H-pyrrolo[1,2-b][1,2,4]triazole]
22 | 220 | O=S(=O)(c1nc2n(n1)C(c1cc(F)cc(F)c1)CC2)C(F)F (racemic) [Example 175, 2-(Difluoromethylsulfonyl)-5-(3,5-difluorophenyl)-6,7-dihydro-5H-pyrrolo[1,2-b][1,2,4]triazole]
23 | 980 | O=S(=O)(c1nc2n(n1)[C@@H](c1ccccc1)C[C@H]2F)C1CC1 (single isomer, unassigned) [Example 14]
24 | 3 | O=S(=O)(c1nc2n(n1)[C@H](c1ccccc1Cl)C[C@@H]2F)C1CC1 (single isomer, unassigned) [Example 32]
25 | 10 | O=S(=O)(c1nc2n(n1)[C@H](c1ccc(F)cc1)C[C@@H]2F)C1CC1 (single isomer, unassigned) [Example 34]
26 | 5 | O=S(=O)(c1nc2n(n1)[C@H](c1c(F)cccc1F)C[C@@H]2F)C1CC1 (single isomer, unassigned) [Example 35]
27 | 880 | O=S(=O)(c1nc2n(n1)[C@@H](c1cccc(F)c1F)C[C@H]2F)C1CC1 (single isomer, unassigned) [Example 36]
28 | 6 | O=S(=O)(c1nc2n(n1)[C@H](c1cc(F)ccc1F)C[C@@H]2F)C1CC1 (single isomer, unassigned) [Example 37]
29 | 10 | O=S(=O)(c1nc2n(n1)[C@H](c1c(F)ccc(F)c1F)C[C@@H]2F)C1CC1 (single isomer, unassigned) [Example 38]
30 | 6 | O=S(=O)(c1nc2n(n1)[C@H](c1cc(F)cc(F)c1F)C[C@@H]2F)C1CC1 (single isomer, unassigned) [Example 39]
31 | 5 | O=S(=O)(c1nc2n(n1)[C@H](c1cccc(F)c1F)C[C@@H]2F)C1CC1 (single isomer, unassigned) [Example 40]
32 | < 5 | O=S(=O)(c1nc2n(n1)[C@H](c1cc(F)cc(F)c1)C[C@@H]2F)C1CC1 (single isomer, unassigned) [Example 42]
33 | 21 | O=S(=O)(c1nc2n(n1)[C@H](c1ccc(F)c(F)c1)C[C@@H]2F)C1CC1 (single isomer, unassigned) [Example 44]
34 | < 5 | O=S(=O)(c1nc2n(n1)[C@H](c1cccc(F)c1Cl)C[C@@H]2F)C1CC1 (single isomer, unassigned) [Example 45]
35 | 20 | O=S(=O)(c1nc2n(n1)[C@H](c1cccc(Cl)c1F)C[C@@H]2F)C1CC1 (single isomer, unassigned) [Example 46]
36 | 67 | O=S(=O)(c1nc2n(n1)[C@H](c1cc(Cl)ccc1F)C[C@@H]2F)C1CC1 (single isomer, unassigned) [Example 47]
37 | < 5 | O=S(=O)(c1nc2n(n1)[C@H](c1cccc(F)c1)C[C@@H]2F)C1CC1 (single isomer, unassigned) [Example 48]
38 | 17 | O=S(=O)(c1nc2n(n1)[C@H](c1ccccc1)C[C@@H]2F)C1CC(F)(F)C1 (single isomer, unassigned) [Example 50]
39 | 55 | O=S(=O)(c1nc2n(n1)[C@H](c1ccc(F)cc1)C[C@@H]2F)C(F)F (single isomer, unassigned) [Example 56]
40 | 7 | O=S(=O)(c1nc2n(n1)[C@H](c1cc(F)cc(F)c1F)C[C@@H]2F)C(F)F (single isomer, unassigned) [Example 60]
